In the NIST ThermoML archive (doi:10.1021/je1013476):

Legend:
[1] = xn = mol fraction of the nth substance listed; settings: 101 kPa, Liquid; for viscosity: Capillary tube (Ostwald / Ubbelohde) method; for mass density: Vibrating tube method
[2] = excess molar enthalpy (molar enthalpy of mixing); xn = mol fraction of the nth substance listed; settings: 303.15 K, 101 kPa, Liquid, Calvet calorimetry

CCOC(=O)OCC [diethyl carbonate] + CCCCCCCCO
[1]
Settings	mass density [kg/m3]	viscosity [mPa·s]
288.15 K, x1 = 0.05879	834.94	8.723
288.15 K, x1 = 0.09178	838.6	7.678
288.15 K, x1 = 0.184	849.27	5.521
288.15 K, x1 = 0.2839	861.63	3.992
288.15 K, x1 = 0.4001	877.04	2.876
288.15 K, x1 = 0.5109	892.89	2.157
288.15 K, x1 = 0.598	906.21	1.773
288.15 K, x1 = 0.6927	921.66	1.441
288.15 K, x1 = 0.8073	941.89	1.157
288.15 K, x1 = 0.9275	965.14	0.953
288.15 K, x1 = 0.9531	970.42	0.921
293.15 K, x1 = 0.05259	830.75	7.441
293.15 K, x1 = 0.1047	836.45	6.062
293.15 K, x1 = 0.1967	847.03	4.538
293.15 K, x1 = 0.2955	859.15	3.308
293.15 K, x1 = 0.3964	872.38	2.544
293.15 K, x1 = 0.5031	887.37	1.951
293.15 K, x1 = 0.604	902.57	1.573
293.15 K, x1 = 0.6995	918.01	1.285
293.15 K, x1 = 0.8175	938.67	1.039
293.15 K, x1 = 0.9124	956.76	0.9
293.15 K, x1 = 0.9531	964.98	0.853
303.15 K, x1 = 0.05353	823.7	5.282
303.15 K, x1 = 0.1003	828.65	4.522
303.15 K, x1 = 0.1902	838.63	3.432
303.15 K, x1 = 0.3002	851.69	2.536
303.15 K, x1 = 0.4112	865.89	1.928
303.15 K, x1 = 0.5038	878.58	1.584
303.15 K, x1 = 0.5934	891.62	1.32
303.15 K, x1 = 0.6981	907.98	1.075
303.15 K, x1 = 0.8151	927.85	0.884
303.15 K, x1 = 0.9138	946.1	0.773
303.15 K, x1 = 0.9548	954.16	0.74
313.15 K, x1 = 0.05666	816.83	3.842
313.15 K, x1 = 0.1109	822.42	3.267
313.15 K, x1 = 0.1956	831.59	2.59
313.15 K, x1 = 0.2893	842.35	2.054
313.15 K, x1 = 0.4005	856.05	1.585
313.15 K, x1 = 0.5067	870.12	1.273
313.15 K, x1 = 0.6044	884.01	1.059
313.15 K, x1 = 0.7038	899.18	0.893
313.15 K, x1 = 0.8041	915.66	0.766
313.15 K, x1 = 0.9092	934.43	0.672
313.15 K, x1 = 0.954	942.96	0.643

[2]
Settings	excess molar enthalpy [kJ/mol]
x1 = 0.09134	0.736
x1 = 0.1276	0.986
x1 = 0.1764	1.3
x1 = 0.2484	1.65
x1 = 0.3155	1.92
x1 = 0.374	2.09
x1 = 0.4304	2.21
x1 = 0.491	2.28
x1 = 0.5699	2.27
x1 = 0.6268	2.21
x1 = 0.6895	2.09
x1 = 0.7492	1.9
x1 = 0.8111	1.62
x1 = 0.8705	1.25
x1 = 0.9357	0.698

CCOC(=O)OCC [diethyl carbonate] + CCCCCO
[1]
Settings	mass density [kg/m3]	viscosity [mPa·s]
288.15 K, x1 = 0.05026	826.9	3.879
288.15 K, x1 = 0.106	836.4	3.215
288.15 K, x1 = 0.1881	850.28	2.529
288.15 K, x1 = 0.2879	866.92	1.972
288.15 K, x1 = 0.396	884.69	1.595
288.15 K, x1 = 0.4905	900.03	1.355
288.15 K, x1 = 0.5917	916.28	1.182
288.15 K, x1 = 0.7104	935.09	1.03
288.15 K, x1 = 0.8067	950.23	0.948
288.15 K, x1 = 0.896	964.17	0.898
288.15 K, x1 = 0.9607	974.25	0.871
293.15 K, x1 = 0.04854	822.8	3.391
293.15 K, x1 = 0.0572	824.25	3.292
293.15 K, x1 = 0.1071	832.6	2.796
293.15 K, x1 = 0.1988	847.85	2.138
293.15 K, x1 = 0.29	862.87	1.725
293.15 K, x1 = 0.398	880.41	1.402
293.15 K, x1 = 0.4939	895.79	1.202
293.15 K, x1 = 0.5998	912.55	1.049
293.15 K, x1 = 0.6968	927.7	0.947
293.15 K, x1 = 0.8009	943.91	0.869
293.15 K, x1 = 0.8902	957.76	0.826
293.15 K, x1 = 0.9604	968.66	0.808
303.15 K, x1 = 0.06248	817.46	2.453
303.15 K, x1 = 0.09976	823.53	2.195
303.15 K, x1 = 0.2017	839.99	1.686
303.15 K, x1 = 0.2898	854.09	1.395
303.15 K, x1 = 0.3969	871	1.159
303.15 K, x1 = 0.4922	885.91	1.013
303.15 K, x1 = 0.5941	901.64	0.893
303.15 K, x1 = 0.6987	917.65	0.808
303.15 K, x1 = 0.8039	933.63	0.75
303.15 K, x1 = 0.8997	948.13	0.715
303.15 K, x1 = 0.9608	957.42	0.703
313.15 K, x1 = 0.05411	808.37	1.951
313.15 K, x1 = 0.1042	816.28	1.705
313.15 K, x1 = 0.1939	830.39	1.373
313.15 K, x1 = 0.29	845.34	1.139
313.15 K, x1 = 0.406	863.19	0.95
313.15 K, x1 = 0.4965	876.96	0.847
313.15 K, x1 = 0.5957	891.9	0.763
313.15 K, x1 = 0.7474	914.56	0.675
313.15 K, x1 = 0.803	922.81	0.653
313.15 K, x1 = 0.8997	937.15	0.628
313.15 K, x1 = 0.9582	945.86	0.62

[2]
Settings	excess molar enthalpy [kJ/mol]
x1 = 0.04842	0.383
x1 = 0.085	0.654
x1 = 0.1521	1.05
x1 = 0.2122	1.36
x1 = 0.263	1.56
x1 = 0.3154	1.75
x1 = 0.3592	1.85
x1 = 0.4399	1.99
x1 = 0.4581	2
x1 = 0.5444	2.06
x1 = 0.64	1.97
x1 = 0.6925	1.82
x1 = 0.7415	1.7
x1 = 0.7993	1.49
x1 = 0.8519	1.22
x1 = 0.9139	0.798
